{
  "source": "patent US20150065436A1",
  "about": "“INHIBITING INTERACTION BETWEEN HIF-1ALPHA AND p300/CBP WITH HYDROGEN BOND SURROGATE-BASED HELICES” (UNIVERSITY OF SOUTHERN CALIFORNIA, priority 2013, published 2015)",
  "test_system": "HeLa cells",
  "test": "MTT cell viability assay",
  "type": "cell-based, human",
  "details": "1 to 100 μM, 24 hours",
  "protocol": "HeLa cells were plated in a 96-well plate at a density of 6,000 cells/well and allowed to form a monolayer before adding the compounds. […] After 3 hours of incubation, the media was removed and purple crystals were dissolved in 100 μL of dimethyl sulfoxide (DMSO). The absorbance was measured at 570 nm with a correction at 690 nm in order to quantify the amount of formed purple formazan. All experiments were performed in quadruplicate.\nHBS 1 is an efficient modulator of contacts between HIF-1α and p300/CBP. Known inhibitors of this interaction typically function allosterically, by inducing unfolding of p300/CBP through abstraction of zinc ions. This could lead to non-specific abstraction of metal ions from other biomolecules (Block et al., “Direct Inhibition of Hypoxia-Inducible Transcription Factor Complex With Designed Dimeric Epidithiodiketopiperazine,” J. Am. Chem. Soc. 131(50):18078-88 (2009), which is hereby incorporated by reference in its entirety). It was predicted that the HIF-1α mimetics should manifest their function in a more specific manner, and should not be generally cytotoxic. Cell viability assays confirm this hypothesis. […] Thus, HBS 2 may not just be a straightforward lower affinity analog of HBS 1 as designed.",
  "data": [
    {"compound": "CC(C)C[C@H](NC(=O)[C@H](C)NC(=O)[C@H](CCCNC(=N)N)NC(=O)[C@H](C)N1CC=CCCC(=O)N[C@@H](CCC(=O)O)C(=O)N[C@@H](CC(C)C)C1=O)C(=O)N[C@@H](CC(=O)O)C(=O)N[C@@H](CCC(N)=O)C(N)=O", "note": "[HBS 1, XELA*RALDQ-NH2]", "values": [
      {"measurement": "cytotoxicity", "result": "essentially non-cytotoxic"}
    ]},
    {"compound": "CC(C)C[C@@H]1NC(=O)[C@H](CCC(=O)O)NC(=O)CCC=CCN([C@@H](C)C(=O)N[C@@H](CCCNC(=N)N)C(=O)N[C@@H](C)C(=O)N[C@@H](C)C(=O)N[C@@H](CC(=O)O)C(=O)N[C@@H](CCC(N)=O)C(N)=O)C1=O", "note": "[HBS 2, XELA*RAADQ-NH2]", "values": [
      {"measurement": "cytotoxicity", "result": "higher level of cytotoxicity than HBS 1"}
    ]}
  ]
}
